According to patent US11685741B2, “Fluorescent probes” (University of Massachusetts, priority 2017, dated 2023):

How the values were obtained:
Caco-2 cells = assay: Imaging labile iron pools in hepcidin-stimulated Caco-2 cells; assay type: cell-based, human
Method: For kinetic experiment, Caco-2 cells (ATCC) were maintained in Dulbecco's minimal essential medium (DMEM, ATCC) supplemented with 10% fetal bovine serum (FBS, ATCC), 100 U/ml penicillin G, and 100 μg/ml streptomycin at 37° C. in a humid atmosphere of 5% CO2 atmosphere. The culture medium was replaced with a fresh medium every 2-3 days. After being nearly confluent, the cells were used for experiment.
The ability of NIRh-Fret to monitor the changes in cellular labile Fe^2+ stores triggered by hepcidin stimulation, a key iron regulatory hormone produced by the liver which controls iron homeostasis was studied (C. H. Park, et al., J. Biol. Chem., 2001, 276, 7806; G. Nicolas, et al, Blood Cells Mol. Dis., 2002, 29, 327; and T. Ganz, Blood, 2003, 102, 783). […] For Fe^2+ replete conditions, live Caco-2 cells were incubated with 100 μM of ferrous ammonium sulfate (Fe (NH4)2(SO4)2) at 37° C. for 6 h followed by washing with DMEM medium to remove excess Fe^2+ and then 10 μM of NIRh-Fret was added to the culture media and was incubated at 37° C. for 30 min. For hepcidin stimulated condition, Cells was treated first with 100 μM of ferrous ammonium sulfate (Fe (NH4)2(SO4)2) for 1 h, followed by addition of 0.5 μM hepcidin and then incubated for another 5 h.

[1] = system: Bovine aortic endothelial cells (BAEC); assay: Confocal imaging of Fe2+ in BAEC cells; assay type: cell-based; conditions: for fluorescence of cells with sensor only / fluorescence of cells treated with Fe^2+ then Bpy: 10 μM sensor; for fluorescence of cells treated with Fe^2+ then Bpy: 100 μM Fe^2+ overnight, versus Fe^2+ supplement; for fluorescence of cells treated with Fe^2+ then Bpy / fluorescence of Bpy-treated cells: 1 mM Bpy; for fluorescence of Fe^2+-treated cells versus unsupplemented: 100 μM ferrous ammonium sulfate overnight, then 10 μM sensor 30 min; for fluorescence of Bpy-treated cells: versus control cells
Method: Bovine aortic endothelial cells BAEC cells, at an approximately density of 1.3 million/ml in complete EBM medium, were incubated with 100 μM ferrous ammonium sulfate (FAS, Fe (NH4)2(SO4)2 from a 10 mM stock solution) for overnight at 37° C. in a humid atmosphere of 5% CO2 and then the cells were washed with fresh EBM medium to remove excess Fe^2+. Then cells were incubated with Rh101D (10 μM, from 500 μM stock solution in DMF) at 37° C. for 30 min and then cells were washed with EBM media and then imaged. In addition, some cells were treated firstly with 100 μM Fe^2+ overnight and then the cells were washed with fresh EBM medium. For chelation experiments, Fe^2+-loaded cells or untreated cells were incubated with 1 mM 2,2′-bipyridyl (Bpy) at 37° C. for 30 min, then sensor was added followed by washing with the media, and then imaging was done. Controls were imaged without incubation with Fe^2+ or 2,2′-bipyridyl. HCT-116, a human colon adenocarcinoma cell line were used for concentration determination of Fe^2+ with the help of the ratiometric sensor Rh101D. HCT-116 were maintained in McCoy's 5A medium supplemented with 10% fetal bouvine serum and 5% antibiotic antimycotic in a 5% CO2 atmosphere at 37° C. Cultures were divided 1:2 every 48 h to an approximate cell density of 1.21 million cells/ml and used for experiments after 24 h. All experiments were performed with cells in the logarithmic growth phase.
A Zeiss LSM 710 laser-scanning confocal microscope system was used for cell imaging experiments in collaboration with a person in the lab. 40× oil-immersion objective lens were used to perform all the experiments. For imaging with the Rh101D sensor, excitation wavelength of the laser was 543 nm and emissions were collected over the range 545-625 nm. For images with MitoTracker Green FM, LysoTracker Deep Red, excitation wavelengths recommended by the manufacturer were 488 nm for MitoTracker, 633 nm for LysoTracker. Emissions were integrated at 492-535 nm (MitoTracker), 650-800 nm (LysoTracker), respectively.
The ability of Rh101D to detect Fe^2+ in live bovine aortic endothelial cells (BAEC) was investigated by confocal microscopy. […] For Fe^2+ repleting conditions, live BAEC cells were incubated with 100 μM of ferrous ammonium sulfate (Fe (NH4)2(SO4)2) at 37° C. for overnight followed by washing with EBM medium to remove excess Fe^2+ and then 10 μM of Rh101D was added to the culture media and was incubated at 37° C. for 30 min. […] For Fe^2+-depleting conditions, 2,2-bipyridyl (Bpy) which is known to be a selective Fe^2+-chelator was used to chelate Fe^2+[33]. […] This fluorescent intensity is almost the same as that of cells without Fe^2+ or Bpy treatment.
To explore this, the distribution of exchangeable Fe^2+ pools in live BAEC cells were further investigated using Rh101D, together with colocalization experiments using other dyes—MitoTracker Green FM (a green fluorescent dye which localizes to mitochondria in live cells regardless of mitochondrial membrane potential) and LysoTracker Deep Red (a fluorescent dye that stains acidic compartments such as endosomes and lysosomes in live cells). BAEC cells (without Fe^2+ treatment) were treated with Rh101D, MitoTracker Green FM, and […].
Bovine aortic endothelial cells (BAEC) were grown at 37° C. in a humid atmosphere of 5% CO2 atmosphere in Endothelial Basal Medium (EBM, Lonza) supplemented with 5% fetal bovine serum (FBS, ATCC). Cultures were divided into 1:2 every 48 h to an approximate cell density of 1.3 million cells/ml and used for experiments after 24 h.
A Zeiss LSM 710 laser-scanning confocal microscope system was used for cell imaging experiments in collaboration with a person in the lab. 40× oil-immersion objective lens were used to perform all the experiments. For imaging with the NIRh-Fret sensor, excitation wavelength of the laser was 633 nm and emissions were collected over the range 650-850 nm. […]

[2] = system: cells in the culture experiments; assay: Cell permeability and toxicity in the culture experiments; assay type: cell-based; conditions: for cell permeability: live cells in culture

## CCN(CC)c1ccc2c(c1)OC1=C(CCC/C1=C\C=C1\N(C)c3ccccc3C1(C)C)C21c2ccccc2C(=O)N1/N=C\C=C\c1ccc(N(C)C)cc1 (centres unmarked) [NIRh-Fret, (E)-6′-(diethylamino)-2-(((1Z,2E)-3-(4-(dimethylamino)phenyl)allylidene)amino)-4′-(2-((E)-1,3,3-trimethylindolin-2-ylidene)ethylidene)-1′,2′,3′,4′-tetrahydrospiro[isoindoline-1,9′-xanthen]-3-one]
Caco-2 cells; 10 μM NIRh-Fret
  fluorescence of cells with sensor only: weak fluorescence
Caco-2 cells; 100 μM ferrous ammonium sulfate 1 h, then 0.5 μM hepcidin 5 h
  fluorescence of hepcidin-treated, iron supplemented cells versus Fe^2+ supplementation only: significant increase in fluorescent signals
Caco-2 cells; 40 min 1 mM Bpy, versus Fe^2+ supplementation only
  fluorescence after Fe^2+, hepcidin and Bpy: decrease in fluorescence signal
[1]
  fluorescence of cells with sensor only: weak fluorescence
  fluorescence of cells treated with Fe^2+ then Bpy: marked decrease in fluorescent intensity
  fluorescence of Fe^2+-treated cells versus unsupplemented: significant increase in fluorescent signals
  fluorescence of Bpy-treated cells: decrease in fluorescence intensity

## CN(C)c1ccc(/C=C/C=N/N2C(=O)c3ccccc3C23c2cc4c5c(c2Oc2c3cc3c6c2CCCN6CCC3)CCCN5CCC4)cc1 [Rh101D]
[2]
  cell permeability: cell permeable
[1]
  fluorescence of cells with sensor only: weak fluorescence
  fluorescence of cells treated with Fe^2+ then Bpy: marked decrease in fluorescent intensity
  fluorescence of Fe^2+-treated cells versus unsupplemented: significant increase in fluorescent signals
  fluorescence of Bpy-treated cells: decrease in fluorescence signal

## CCN(CC)c1ccc2c(c1)Oc1cc(N(CC)CC)ccc1C21c2ccccc2C(=O)N1CC/N=C(\C)c1cccc(C(C)=O)n1 [Rh-PK, (E)-2-(2-((1-(6-acetylpyridin-2-yl)ethylidene)amino)ethyl)-3′,6′-bis(diethylamino)spiro[isoindoline-1,9′-xanthen]-3-one]
[2]; culture experiments
  toxicity for cells: non-toxic
[2]
  cell permeability: excellent cell permeability
